In patent US20160151335A1, “METHODS OF MODULATING CFTR ACTIVITY” (PROTEOSTASIS THERAPEUTICS, INC., priority 2013, published 2016):

Target: T1, ΔF508-CFTR (Homo sapiens, UniProt P13569, DEL508-508)
T1 construct: Primary lung epithelial cells (hBEs) homozygous for the Cystic Fibrosis-causing ΔF508 mutation; endogenous in cells; host or cells: primary lung (bronchial) epithelial cells (hBE) homozygous for ΔF508, differentiated at an air-liquid interface
Test: hBE equivalent current (Ieq) assay, AUC of equivalent chloride current
Type: cell-based
Settings: compound at 10 uM, 24 h, primary hBE cells homozygous ΔF508; AUC increase relative to VX-809 at 1 uM
Procedure: Primary lung epithelial cells homozygous for the Cystic Fibrosis-causing ΔF508 mutation were differentiated for a minimum of 4 weeks in an air-liquid interface on Costar 24 well HTS filter plates prior to the equivalent current (Ieq) measurements. Cells were apically mucus-washed for 30 minutes 24 h prior to treatment with compounds. The basolateral media was removed and replaced with media containing the compound of interest diluted to its final concentration from DMSO stocks. Treated cells were incubated at 37° C. and 5% CO2 for 24 hours. At the end of the treatment period, the media was changed to the Ieq experimental solution for 30 minutes before the experiment and plates are maintained in a CO2-free incubator during this period. The plates containing the cells were then placed in pre-warmed heating blocks at 36° C.±0.5 for 15 minutes before measurements are taken. The transepithelial voltage (VT) and conductance (GT) were measured using a custom 24 channel current clamp (TECC-24) with 24 well electrode manifold. The Ieq assay measurements were made following additions with standardized time periods: • 1. The baseline VT and GT values were measured for approximately 20 minutes. • 2. Benzamil was added to block ENaC for 15 minutes. • 3. Forskolin plus VX-770 were added to maximally activate ΔF508-CFTR for 27 minutes. • 4. Bumetanide was added to inhibit the NaK2Cl cotransporter and shut-off secretion of chloride. The activity data captured was the area under the curve (AUC) for the traces of the equivalent chloride current. The AUC was collected from the time of the forskolin/VX-770 addition until the inhibition by bumetanide addition. Correction in response to compound treatment was scored as the increase in the AUC for compound-treated samples over that of vehicle-treated samples. (++ indicates activity ≧25% run at 10 uM of VX-809 at 1 uM, + indicates activity 10 to ≦25% run at 10 uM of VX-809 at 1 uM.

T1 sequence (P13569 with tags, fused parts or gaps DEL508-508): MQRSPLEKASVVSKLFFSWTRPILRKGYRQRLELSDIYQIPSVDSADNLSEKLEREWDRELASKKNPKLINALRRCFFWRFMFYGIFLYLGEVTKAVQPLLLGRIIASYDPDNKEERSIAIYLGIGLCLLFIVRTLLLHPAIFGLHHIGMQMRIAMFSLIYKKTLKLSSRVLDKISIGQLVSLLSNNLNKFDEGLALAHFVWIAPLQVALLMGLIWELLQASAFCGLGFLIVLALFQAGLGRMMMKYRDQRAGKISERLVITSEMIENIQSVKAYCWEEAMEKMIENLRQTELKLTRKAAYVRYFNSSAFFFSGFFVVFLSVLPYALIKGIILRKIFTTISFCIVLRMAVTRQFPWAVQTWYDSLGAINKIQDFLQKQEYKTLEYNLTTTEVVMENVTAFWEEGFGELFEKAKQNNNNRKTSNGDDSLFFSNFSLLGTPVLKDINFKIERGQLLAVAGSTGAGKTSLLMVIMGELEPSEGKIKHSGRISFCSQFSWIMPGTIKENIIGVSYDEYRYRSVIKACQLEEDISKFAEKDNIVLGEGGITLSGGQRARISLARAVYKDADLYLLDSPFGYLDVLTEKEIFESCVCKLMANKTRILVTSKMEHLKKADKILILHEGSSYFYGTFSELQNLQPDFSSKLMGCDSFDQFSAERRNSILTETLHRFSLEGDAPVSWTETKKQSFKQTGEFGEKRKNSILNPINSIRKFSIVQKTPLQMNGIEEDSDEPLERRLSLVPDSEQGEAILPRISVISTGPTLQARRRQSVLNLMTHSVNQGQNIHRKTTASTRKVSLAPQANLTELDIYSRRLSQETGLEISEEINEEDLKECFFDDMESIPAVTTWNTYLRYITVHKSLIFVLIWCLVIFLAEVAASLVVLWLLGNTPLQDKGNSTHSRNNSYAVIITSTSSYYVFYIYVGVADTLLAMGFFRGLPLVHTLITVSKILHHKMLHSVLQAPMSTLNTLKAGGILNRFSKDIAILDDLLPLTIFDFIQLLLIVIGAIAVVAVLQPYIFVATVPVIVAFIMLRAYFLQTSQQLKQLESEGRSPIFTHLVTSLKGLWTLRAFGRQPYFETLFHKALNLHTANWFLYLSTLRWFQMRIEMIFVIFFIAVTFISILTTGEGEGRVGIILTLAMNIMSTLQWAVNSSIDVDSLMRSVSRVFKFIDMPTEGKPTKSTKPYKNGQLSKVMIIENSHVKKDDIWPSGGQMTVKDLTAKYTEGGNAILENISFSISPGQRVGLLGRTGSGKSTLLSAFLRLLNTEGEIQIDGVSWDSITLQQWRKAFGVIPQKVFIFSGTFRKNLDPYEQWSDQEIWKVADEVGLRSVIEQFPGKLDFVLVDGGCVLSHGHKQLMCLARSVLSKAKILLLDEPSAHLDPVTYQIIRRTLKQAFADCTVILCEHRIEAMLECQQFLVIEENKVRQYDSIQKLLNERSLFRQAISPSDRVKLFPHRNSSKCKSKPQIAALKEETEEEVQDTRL

Structure (SMILES) | Ieq hBE Activity
CSCc1noc(CNC(=O)c2cc(-c3ccccc3)on2)n1 [Compound 36] | ++ (++ indicates activity ≧25% run at 10 uM of VX-809 at 1 uM)
Cc1nc(CCCNC(=O)c2cc(-c3ccccc3)on2)sc1C [Compound 191] | ++ (++ indicates activity ≧25% run at 10 uM of VX-809 at 1 uM)
CN1CCN(CCNC(=O)c2cc(-c3ccccc3)on2)CC1 [Compound 92] | ++ (++ indicates activity ≧25% run at 10 uM of VX-809 at 1 uM)
Cn1nncc1CCCNC(=O)c1cc(-c2ccccc2)on1 [Compound 295] | + (+ indicates activity 10 to ≦25% run at 10 uM of VX-809 at 1 uM)
O=C(NCCc1ccccc1)c1cc(-c2ccccc2)on1 [Compound 95] | ++ (++ indicates activity ≧25% run at 10 uM of VX-809 at 1 uM)
O=C(NCC(O)COCc1ccccc1)c1cc(-c2ccccc2)on1 (centres unmarked) [Compound 172] | + (+ indicates activity 10 to ≦25% run at 10 uM of VX-809 at 1 uM)
O=C(NCCCn1ccnc1)c1cc(-c2cccs2)on1 [Compound 237] | ++ (++ indicates activity ≧25% run at 10 uM of VX-809 at 1 uM)
O=C(NCCCN1CCOCC1)c1cc(-c2ccccc2)on1 [Compound 13] | ++ (++ indicates activity ≧25% run at 10 uM of VX-809 at 1 uM)
COCCNC(=O)c1cc(-c2cccs2)on1 [Compound 224] | ++ (++ indicates activity ≧25% run at 10 uM of VX-809 at 1 uM)
COCc1noc(CCNC(=O)c2cc(-c3ccccc3)on2)n1 [Compound 11] | ++ (++ indicates activity ≧25% run at 10 uM of VX-809 at 1 uM)
NS(=O)(=O)c1ccc(CCNC(=O)c2cc(-c3ccccc3)on2)cc1 [Compound 97] | ++ (++ indicates activity ≧25% run at 10 uM of VX-809 at 1 uM)
O=C(NCCCn1nccc1C1CC1)c1cc(-c2ccccc2)on1 [Compound 200] | ++ (++ indicates activity ≧25% run at 10 uM of VX-809 at 1 uM)
Cn1ccc(CNC(=O)c2cc(-c3ccccc3)on2)n1 [Compound 27] | + (+ indicates activity 10 to ≦25% run at 10 uM of VX-809 at 1 uM)
O=C(NCCc1ccncc1)c1cc(-c2ccccc2)on1 [Compound 102] | ++ (++ indicates activity ≧25% run at 10 uM of VX-809 at 1 uM)
O=C(NCCCN1CCOCC1)c1cc(-c2ccc(F)cc2)on1 [Compound 128] | + (+ indicates activity 10 to ≦25% run at 10 uM of VX-809 at 1 uM)
O=C(NCCc1ccccn1)c1cc(-c2ccccc2)on1 [Compound 100] | + (+ indicates activity 10 to ≦25% run at 10 uM of VX-809 at 1 uM)
O=C(NCCCn1cccc1)c1cc(-c2ccccc2)on1 [Compound 186] | ++ (++ indicates activity ≧25% run at 10 uM of VX-809 at 1 uM)
CCNC(=O)c1cc(-c2ccccc2)on1 [Compound 336] | ++ (++ indicates activity ≧25% run at 10 uM of VX-809 at 1 uM)
O=C(NCCc1cccnc1)c1cc(-c2ccccc2)on1 [Compound 101] | ++ (++ indicates activity ≧25% run at 10 uM of VX-809 at 1 uM)

Structure (SMILES) | Ieq hBE Activity
Cn1cncc1CCCNC(=O)c1cc(-c2ccccc2)on1 [Compound 195] | ++ (++ indicates activity ≧25% run at 10 uM of VX-809 at 1 uM)
O=C(N[C@H]1CC[C@H](O)CC1)c1cc(-c2ccccc2)on1 [Compound 343] | + (+ indicates activity 10 to ≦25% run at 10 uM of VX-809 at 1 uM)
O=C(NCC1CCCO1)c1cc(-c2ccco2)on1 (centres unmarked) [Compound 321] | + (+ indicates activity 10 to ≦25% run at 10 uM of VX-809 at 1 uM)
Cn1cnc(CCCNC(=O)c2cc(-c3ccccc3)on2)c1 [Compound 197] | ++ (++ indicates activity ≧25% run at 10 uM of VX-809 at 1 uM)
O=C(NCCn1nccn1)c1cc(-c2cccs2)on1 [Compound 228] | ++ (++ indicates activity ≧25% run at 10 uM of VX-809 at 1 uM)
O=C(NCCCN1CCOCC1)c1cc(-c2cccs2)on1 [Compound 14] | ++ (++ indicates activity ≧25% run at 10 uM of VX-809 at 1 uM)
O=C(NCCN1CCOCC1)c1cc(-c2cccs2)on1 [Compound 229] | + (+ indicates activity 10 to ≦25% run at 10 uM of VX-809 at 1 uM)
O=C(NCCc1cnccn1)c1cc(-c2ccccc2)on1 [Compound 6] | ++ (++ indicates activity ≧25% run at 10 uM of VX-809 at 1 uM)
O=C(NCCCC(F)(F)F)c1cc(-c2cccs2)on1 [Compound 223] | ++ (++ indicates activity ≧25% run at 10 uM of VX-809 at 1 uM)
O=C(NCCN1CCOCC1)c1cc(-c2ccccc2)on1 [Compound 4] | ++ (++ indicates activity ≧25% run at 10 uM of VX-809 at 1 uM)
O=C(NCc1ccccn1)c1cc(-c2ccccc2)on1 [Compound 41] | + (+ indicates activity 10 to ≦25% run at 10 uM of VX-809 at 1 uM)
COCCNC(=O)c1cc(-c2ccc(C(F)(F)F)cc2)on1 [Compound 161] | + (+ indicates activity 10 to ≦25% run at 10 uM of VX-809 at 1 uM)
O=C(NCCCc1cccnc1)c1cc(-c2ccccc2)on1 [Compound 207] | ++ (++ indicates activity ≧25% run at 10 uM of VX-809 at 1 uM)
O=C(NCCC1CCOCC1)c1cc(-c2cccs2)on1 [Compound 230] | ++ (++ indicates activity ≧25% run at 10 uM of VX-809 at 1 uM)
O=C(NCCc1noc(C2CCCC2)n1)c1cc(-c2ccccc2)on1 [Compound 12] | ++ (++ indicates activity ≧25% run at 10 uM of VX-809 at 1 uM)
Cc1ncc(NCCNC(=O)c2cc(-c3ccccc3)on2)[nH]c1=O [Compound 375] | + (+ indicates activity 10 to ≦25% run at 10 uM of VX-809 at 1 uM)
COCc1noc(CNC(=O)c2cc(-c3ccccc3)on2)n1 [Compound 35] | ++ (++ indicates activity ≧25% run at 10 uM of VX-809 at 1 uM)
O=C(NCc1ccco1)c1cc(-c2ccccc2)on1 [Compound 20] | + (+ indicates activity 10 to ≦25% run at 10 uM of VX-809 at 1 uM)
O=C(NCCc1ccccn1)c1cc(-c2cccs2)on1 [Compound 232] | ++ (++ indicates activity ≧25% run at 10 uM of VX-809 at 1 uM)

Structure (SMILES) | Ieq hBE Activity
COCCNC(=O)c1cc(-c2ccccc2F)on1 [Compound 150] | + (+ indicates activity 10 to ≦25% run at 10 uM of VX-809 at 1 uM)
COCCNC(=O)c1cc(-c2ccccc2)on1 [Compound 329A] | ++ (++ indicates activity ≧25% run at 10 uM of VX-809 at 1 uM)
O=C(NCCc1csc(-c2ncccn2)n1)c1cc(-c2ccccc2)on1 [Compound 110] | ++ (++ indicates activity ≧25% run at 10 uM of VX-809 at 1 uM)
O=C(NCCCc1ccoc1)c1cc(-c2ccccc2)on1 [Compound 194] | + (+ indicates activity 10 to ≦25% run at 10 uM of VX-809 at 1 uM)
Cc1nnc(CCNC(=O)c2cc(-c3ccccc3)on2)s1 [Compound 8] | ++ (++ indicates activity ≧25% run at 10 uM of VX-809 at 1 uM)
COCCNC(=O)c1cc(-c2ccccc2OC)on1 [Compound 153] | ++ (++ indicates activity ≧25% run at 10 uM of VX-809 at 1 uM)
O=C(NCC(O)c1ccncc1)c1cc(-c2ccccc2)on1 (centres unmarked) [Compound 7] | ++ (++ indicates activity ≧25% run at 10 uM of VX-809 at 1 uM)
CCCCNC(=O)c1cc(-c2ccc(F)cc2)on1 [Compound 342] | ++ (++ indicates activity ≧25% run at 10 uM of VX-809 at 1 uM)
CCCn1cc(CNC(=O)c2cc(-c3ccccc3)on2)cn1 [Compound 30] | + (+ indicates activity 10 to ≦25% run at 10 uM of VX-809 at 1 uM)
O=C(NCCc1ccncc1)c1cc(-c2cccs2)on1 [Compound 234] | ++ (++ indicates activity ≧25% run at 10 uM of VX-809 at 1 uM)
O=C(NCCCN1CCOCC1)c1cc(-c2ccccc2F)on1 [Compound 135] | + (+ indicates activity 10 to ≦25% run at 10 uM of VX-809 at 1 uM)
O=C(NCC1CCCO1)c1cc(-c2cccs2)on1 (centres unmarked) [Compound 225] | ++ (++ indicates activity ≧25% run at 10 uM of VX-809 at 1 uM)
O=C(NCCn1ccnn1)c1cc(-c2ccccc2)on1 [Compound 376] | ++ (++ indicates activity ≧25% run at 10 uM of VX-809 at 1 uM)
O=C(NCCn1ccnn1)c1cc(-c2cccs2)on1 [Compound 377] | ++ (++ indicates activity ≧25% run at 10 uM of VX-809 at 1 uM)
O=C(NCCCn1nnc2ccccc21)c1cc(-c2ccccc2)on1 [Compound 205] | ++ (++ indicates activity ≧25% run at 10 uM of VX-809 at 1 uM)
O=C(NCCNC(=O)c1cc(-c2ccccc2)on1)c1cccnc1 [Compound 373] | ++ (++ indicates activity ≧25% run at 10 uM of VX-809 at 1 uM)
O=C(NCC1CCCO1)c1cc(-c2ccccc2)on1 (centres unmarked) [Compound 1] | ++ (++ indicates activity ≧25% run at 10 uM of VX-809 at 1 uM)
O=C(NCCCCO)c1cc(-c2cccs2)on1 [Compound 349] | ++ (++ indicates activity ≧25% run at 10 uM of VX-809 at 1 uM)
